According to patent US12473294B2, “Selective modulators of mutant LRRK2 proteolysis and associated methods of use” (Arvinas Operations, Inc., priority 2020, dated 2025):

Key:
G2019S LRRK2 = target: T1, G2019S LRRK2 (Homo sapiens, UniProt Q5S007, G2019S); assay: LRRK2 degradation HiBit assay, G2019S LRRK2 tagged with a HiBit tag expressed in HEK293 cells; format: cell-based; conditions: 24 hours compound incubation; for Dmax: HEK293, HEK293 cells; for DC50: HEK293 cells
T1 construct: expressed in transfected cells; host or cells: HEK293 (ATCC CRL-1573)
Experimental: (§1) The assay measures the degradation of wildtype and G2019S LRRK2 tagged with a HiBit tag on the C-terminus of the protein that was expressed from a mammalian expression vector, driven by the ubiquitin promoter in HEK293 cells. Each compound dose-response was repeated on three separate days, on three separate plates each day.
(§2) Plasmid Preparation. Transfection mixes were assembled as follows and incubated for 30 minutes at room temperature. In a 15 mL tube, 5.25 mL Opti-MEM (no additions) was mixed with 17 μL Firefly Luciferase plasmid at 1 μg/μL and 158 μL WT plasmid DNA at 1 μg/μL (175 μg total DNA) were mixed by flicking. In a new 15 mL tube, 5.25 mL OptiMEM was mixed with 17 μL Firefly Luciferase plasmid at 1 μg/μL and 158 μL G2019S plasmid DNA at 1 μg/μL (175 μg total DNA) were mixed by flicking. X-tremeGene HP was mixed thoroughly using a vortex. Next, 175 μL was added to each tube and flicked to mix. Both tubes were left to incubate for 30 minutes at room temperature.
While the transfection mixes were incubating, HEK293 cells acquired from ATCC (ATCC CRL-1573) were harvested with trypsin. Once cells are detached, the cells were resuspended in 12 mL OptiMEM+5% FBS and transferred to a 50 mL tube. The cells were mixed well and counted. Using OptiMEM+5% FBS, the cells were diluted in two 250 mL conical tubes at 0.71×10^6 cells/mL in 70 mL. One tube was labeled “WT” and the other “G2019S”. The WT and G2019S transfection mixes were added dropwise to the corresponding 250 mL tubes. The tubes were mixed first by pipetting then by swirling. The tubes were incubated at room temperature for at least 5 minutes.
(§3) Each tube was swirled before dispensing and after every three plates. Seventy microliters of cells were dispensed with WT or G2019S DNA to seven plates each. Three plates of each were tested with compound plate one (preparation described below) and three plates of each were tested with compound plate two (preparation described below). The first plate from each set served as a “prime” plate and was not used to test compounds. Each plate was incubated in the hood for 10 minutes before placing in the 37° C. incubator for 24 hours.
(§4) Preparation of Compound and Assay Plates. Two compound plates were made using 96 well polypropylene plates. Compounds were made up at 10 mM and were diluted to 1 mM in 30 μL. Each dose response curve included a well of DMSO, as a negative control and for normalization, and a well of 0.5 μM of Exemplary Compound 4 as a positive control. In addition to seven test compounds, each plate also included a dose response of Exemplary Compound 4. The compound plates were spun down along at 1200 rpm for 2 minutes.
(§5) The two compound plates were then mixed and 2 μL was diluted in intermediate plates having 248 μL of Opti-Mem in each well. Next, 10 μL diluted compounds from the intermediate plates were added to each test plate (three WT and three G2019S plates per compound plate for a total of 12 assay plates). The plates were incubated for 24 hours at 37° C.
(§6) All assay plates and all Nano-Glo Dual-Luciferase Reporter Assay System components (except for the DLR substrate) were equilibrated to room temperature. Next, the luciferase buffer was mixed with the lyophilized amber bottle until fully dissolved, and 75 μL of the luciferase mixture was added to each well of each assay plate. The assay plates were incubated for 10 minutes at room temperature with shaking for at least 5 minutes, and then read on a plate reader.
(§7) Developing Plates and Analyzing Data. One milliliter of DLR substrate and 1 mL LgBiT Protein were added to the Stop and Glo buffer, and 75 μL of the mixture was added to each well of each plate. Optically clear seals were added to each plate and each plate was incubated for 20 minutes with shaking for at least 10 minutes, and then read on a plate reader. […]

wildtype LRRK2 = target: T2, wildtype LRRK2 (Homo sapiens, UniProt Q5S007); assay: LRRK2 degradation HiBit assay, wildtype LRRK2 tagged with a HiBit tag in HEK293 cells; format: cell-based; conditions: 24 hours compound incubation; for Dmax: read-out: ** WT Dmax (%); for DC50: read-out: *WT DC50
T2 construct: endogenous in cells; host or cells: HEK293 with HiBit knocked in at the 3' end of the endogenous LRRK2 gene, stably expressing firefly luciferase
Experimental: as §1, with “repeated on two separate days,” for “repeated on three separate days,”
as §2
While the transfection mixes were incubating, HEK293 cells (acquired from ATCC; ATCC CRL-1573) were harvested with trypsin. Once cells are detached, the cells were resuspended in 12 mL OptiMEM+5% FBS and transferred to a 50 mL tube. The cells were mixed well and counted. Using OptiMEM+5% FBS, the cells were diluted in two 250 mL conical tubes at 0.71×10^6 cells/mL in 70 mL. One tube was labeled “WT” and the other “G2019S”. The WT and G2019S transfection mixes were added dropwise to the corresponding 250 mL tubes. The tubes were mixed first by pipetting then by swirling. The tubes were incubated at room temperature for at least 5 minutes.
as §3, §4, §5, §6, §7

T1 sequence (Q5S007 whole entry G2019S): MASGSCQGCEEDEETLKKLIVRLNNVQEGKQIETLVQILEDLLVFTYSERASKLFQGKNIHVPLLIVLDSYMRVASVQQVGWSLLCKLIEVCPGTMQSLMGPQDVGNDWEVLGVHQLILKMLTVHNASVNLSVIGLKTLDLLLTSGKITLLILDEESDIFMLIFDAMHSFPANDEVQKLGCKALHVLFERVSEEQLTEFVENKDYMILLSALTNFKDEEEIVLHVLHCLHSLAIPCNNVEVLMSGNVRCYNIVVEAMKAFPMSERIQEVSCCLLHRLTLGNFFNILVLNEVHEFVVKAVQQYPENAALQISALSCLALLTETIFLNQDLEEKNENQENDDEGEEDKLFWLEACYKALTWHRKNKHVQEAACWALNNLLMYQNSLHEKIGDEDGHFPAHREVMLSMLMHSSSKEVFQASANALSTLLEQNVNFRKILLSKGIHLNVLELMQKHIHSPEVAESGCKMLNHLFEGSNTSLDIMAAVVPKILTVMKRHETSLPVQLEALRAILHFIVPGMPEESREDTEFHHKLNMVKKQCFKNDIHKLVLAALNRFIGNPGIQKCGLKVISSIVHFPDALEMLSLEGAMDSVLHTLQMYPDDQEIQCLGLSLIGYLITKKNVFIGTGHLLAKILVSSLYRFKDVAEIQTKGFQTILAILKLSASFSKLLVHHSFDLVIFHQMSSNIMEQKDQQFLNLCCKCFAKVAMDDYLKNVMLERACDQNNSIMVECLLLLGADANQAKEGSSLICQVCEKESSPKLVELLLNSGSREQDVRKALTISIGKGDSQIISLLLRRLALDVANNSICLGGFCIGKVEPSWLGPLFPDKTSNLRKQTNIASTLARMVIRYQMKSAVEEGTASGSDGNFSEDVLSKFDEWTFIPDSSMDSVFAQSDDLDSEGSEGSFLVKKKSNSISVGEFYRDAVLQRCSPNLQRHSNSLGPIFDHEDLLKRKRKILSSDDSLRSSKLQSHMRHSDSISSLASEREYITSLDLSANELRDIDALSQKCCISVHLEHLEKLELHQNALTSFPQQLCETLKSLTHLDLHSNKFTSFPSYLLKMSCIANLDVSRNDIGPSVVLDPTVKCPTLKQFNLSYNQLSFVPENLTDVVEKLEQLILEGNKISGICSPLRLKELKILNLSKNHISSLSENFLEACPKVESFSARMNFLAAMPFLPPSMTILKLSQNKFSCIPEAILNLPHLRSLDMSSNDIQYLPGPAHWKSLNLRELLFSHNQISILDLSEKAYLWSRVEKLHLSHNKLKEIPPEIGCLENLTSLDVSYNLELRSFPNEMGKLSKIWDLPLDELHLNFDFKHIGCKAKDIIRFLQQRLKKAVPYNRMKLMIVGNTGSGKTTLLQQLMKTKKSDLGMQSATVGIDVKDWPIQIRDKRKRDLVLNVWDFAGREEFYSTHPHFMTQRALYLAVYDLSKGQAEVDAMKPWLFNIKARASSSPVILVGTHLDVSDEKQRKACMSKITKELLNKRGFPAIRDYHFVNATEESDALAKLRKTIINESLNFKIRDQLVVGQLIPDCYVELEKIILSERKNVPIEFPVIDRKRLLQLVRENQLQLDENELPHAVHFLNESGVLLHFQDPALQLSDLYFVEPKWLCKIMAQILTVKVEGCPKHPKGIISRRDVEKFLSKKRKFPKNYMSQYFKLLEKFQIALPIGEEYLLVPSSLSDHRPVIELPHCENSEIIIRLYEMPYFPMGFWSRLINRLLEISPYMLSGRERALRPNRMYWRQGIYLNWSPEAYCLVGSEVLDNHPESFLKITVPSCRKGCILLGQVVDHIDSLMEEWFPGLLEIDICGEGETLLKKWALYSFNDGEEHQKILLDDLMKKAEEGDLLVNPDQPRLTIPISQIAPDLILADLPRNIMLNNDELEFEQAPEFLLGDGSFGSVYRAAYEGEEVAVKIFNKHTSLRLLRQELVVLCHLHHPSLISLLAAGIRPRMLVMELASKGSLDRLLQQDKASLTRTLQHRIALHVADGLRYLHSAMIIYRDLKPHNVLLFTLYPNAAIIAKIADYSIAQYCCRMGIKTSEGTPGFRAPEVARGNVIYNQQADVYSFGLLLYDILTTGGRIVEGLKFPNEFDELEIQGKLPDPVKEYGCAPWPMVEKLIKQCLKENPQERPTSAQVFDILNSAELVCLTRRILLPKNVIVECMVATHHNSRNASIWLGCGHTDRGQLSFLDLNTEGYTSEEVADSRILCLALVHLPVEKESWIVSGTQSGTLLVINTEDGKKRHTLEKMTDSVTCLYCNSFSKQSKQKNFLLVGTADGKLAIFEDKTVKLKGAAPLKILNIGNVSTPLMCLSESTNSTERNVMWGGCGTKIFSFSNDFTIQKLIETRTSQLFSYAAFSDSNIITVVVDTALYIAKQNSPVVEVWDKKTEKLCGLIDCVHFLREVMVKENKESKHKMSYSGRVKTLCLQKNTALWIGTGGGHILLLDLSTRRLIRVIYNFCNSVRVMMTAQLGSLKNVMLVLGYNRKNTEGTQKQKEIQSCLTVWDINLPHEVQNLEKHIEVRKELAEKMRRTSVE
T2 sequence (Q5S007 whole entry): as the sequence (Q5S007 whole entry G2019S) above, with S2019G counted along it

SMILES | Dmax (G2019S LRRK2) [%] | DC50 (G2019S LRRK2) [nM] | Dmax (wildtype LRRK2) [%] | DC50 (wildtype LRRK2) [nM]
CC1=C(C(=O)Nc2ccc3[nH]nc(-c4ccnc(N5C[C@@H](C)N(CC6CCN(CC7CCN(c8ccc9c(c8)C(=O)N(C8CCC(=O)NC8=O)C9=O)CC7)CC6)[C@@H](C)C5)c4)c3c2)C(C)(C)n2nnnc2N1C (stereo partly drawn) [compound 6, N-(3-(2-((3S,5R)-4-((1-((1-(2-(2,6-dioxopiperidin-3-yl)-1,3-dioxoisoindolin-5-yl)piperidin-4-yl)methyl)piperidin-4-yl)methyl)-3,5-dimethylpiperazin-1-yl)pyridin-4-yl)-1H-indazol-5-yl)-4,5,7,7-tetramethyl-4,7-dihydrotetrazolo[1,5-a]pyrimidine-6-carboxamide] | < 50 | 10 to 50 | < 50 | ≥ 100
CC1=C(C(=O)Nc2ccc3[nH]nc(-c4ccnc(N5CCN(CC6CCN(CC7CCN(c8ccc9c(c8)C(=O)N(C8CCC(=O)NC8=O)C9=O)CC7)CC6)[C@@H](C)C5)c4)c3c2)Cn2nnnc2N1C (stereo partly drawn) [compound 10, N-(3-(2-((S)-4-((1-((1-(2-(2,6-dioxopiperidin-3-yl)-1,3-dioxoisoindolin-5-yl)piperidin-4-yl)methyl)piperidin-4-yl)methyl)-3-methylpiperazin-1-yl)pyridin-4-yl)-1H-indazol-5-yl)-4,5-dimethyl-4,7-dihydrotetrazolo[1,5-a]pyrimidine-6-carboxamide] | 50 to 70 | < 10 | 50 to 70 | 10 to 50
CC1=C(C(=O)Nc2ccc3[nH]nc(-c4ccnc(N5CCN(CC6CCN(CC7CCN(c8ccc9c(c8)C(=O)N(C8CCC(=O)NC8=O)C9=O)CC7)CC6)CC5)c4)c3c2)[C@@H](C)n2nnnc2N1C (stereo partly drawn) [compound 11, (7R)-N-(3-(2-(4-((1-((1-(2-(2,6-dioxopiperidin-3-yl)-1,3-dioxoisoindolin-5-yl)piperidin-4-yl)methyl)piperidin-4-yl)methyl)piperazin-1-yl)pyridin-4-yl)-1H-indazol-5-yl)-4,5,7-trimethyl-4,7-dihydrotetrazolo[1,5-a]pyrimidine-6-carboxamide] | < 50 | 10 to 50 | < 50 | 50 to 100
CC1=C(C(=O)Nc2ccc3[nH]nc(-c4ccnc(N5CCN(CC6CCN(CC7CCN(c8ccc9c(c8)C(=O)N(C8CCC(=O)NC8=O)C9=O)CC7)CC6)CC5)c4)c3c2)[C@H](C)n2nnnc2N1C (stereo partly drawn) [compound 12, (7S)-N-(3-(2-(4-((1-((1-(2-(2,6-dioxopiperidin-3-yl)-1,3-dioxoisoindolin-5-yl)piperidin-4-yl)methyl)piperidin-4-yl)methyl)piperazin-1-yl)pyridin-4-yl)-1H-indazol-5-yl)-4,5,7-trimethyl-4,7-dihydrotetrazolo[1,5-a]pyrimidine-6-carboxamide] | < 50 | ≥ 100 |  | ≥ 100
CC1=C(C(=O)Nc2ccc3[nH]nc(-c4ccnc(N5CCN(CC6CCN(CC7CCN(c8ccc9c(c8)C(=O)N(C8CCC(=O)NC8=O)C9=O)CC7)CC6)CC5)c4)c3c2)Cn2nnnc2N1C (stereo not shown) [compound 13, N-(3-(2-(4-((1-((1-(2-(2,6-dioxopiperidin-3-yl)-1,3-dioxoisoindolin-5-yl)piperidin-4-yl)methyl)piperidin-4-yl)methyl)piperazin-1-yl)pyridin-4-yl)-1H-indazol-5-yl)-4,5-dimethyl-4,7-dihydrotetrazolo[1,5-a]pyrimidine-6-carboxamide] | 50 to 70 | 10 to 50 | < 50 | ≥ 100
CC1=C(C(=O)Nc2ccc3[nH]nc(-c4ccnc(N5CCN(CCC6CCN(CC7CCN(c8ccc9c(c8)C(=O)N(C8CCC(=O)NC8=O)C9=O)CC7)CC6)CC5)c4)c3c2)[C@@H](C)n2nnnc2N1C (stereo partly drawn) [compound 14, (7R)-N-(3-(2-(4-(2-(1-((1-(2-(2,6-dioxopiperidin-3-yl)-1,3-dioxoisoindolin-5-yl)piperidin-4-yl)methyl)piperidin-4-yl)ethyl)piperazin-1-yl)pyridin-4-yl)-1H-indazol-5-yl)-4,5,7-trimethyl-4,7-dihydrotetrazolo[1,5-a]pyrimidine-6-carboxamide] | < 50 | 50 to 100 | 50 to 70 | ≥ 100
CC1=C(C(=O)Nc2ccc3[nH]nc(-c4ccnc(N5CCN(CCCN6CCN(c7ccc8c(c7)C(=O)N(C7CCC(=O)NC7=O)C8=O)CC6)CC5)c4)c3c2)[C@@H](C)n2nnnc2N1C (stereo partly drawn) [compound 15, (7R)-N-(3-(2-(4-(3-(4-(2-(2,6-dioxopiperidin-3-yl)-1,3-dioxoisoindolin-5-yl)piperazin-1-yl)propyl)piperazin-1-yl)pyridin-4-yl)-1H-indazol-5-yl)-4,5,7-trimethyl-4,7-dihydrotetrazolo[1,5-a]pyrimidine-6-carboxamide] | 50 to 70 | 10 to 50 | 50 to 70 | ≥ 100
CC1=C(C(=O)Nc2ccc3[nH]nc(-c4ccnc(N5CCN(CC6CN(CC7CCN(c8ccc9c(c8)C(=O)N(C8CCC(=O)NC8=O)C9=O)CC7)C6)CC5)c4)c3c2)[C@@H](C)n2nnnc2N1C (stereo partly drawn) [compound 17, (7R)-N-(3-(2-(4-((1-((1-(2-(2,6-dioxopiperidin-3-yl)-1,3-dioxoisoindolin-5-yl)piperidin-4-yl)methyl)azetidin-3-yl)methyl)piperazin-1-yl)pyridin-4-yl)-1H-indazol-5-yl)-4,5,7-trimethyl-4,7-dihydrotetrazolo[1,5-a]pyrimidine-6-carboxamide] | 50 to 70 | 50 to 100 | 50 to 70 | ≥ 100
CC1=C(C(=O)Nc2ccc3[nH]nc(-c4ccnc(N5CCN(CC6CCN(C7CCN(c8ccc9c(c8)C(=O)N(C8CCC(=O)NC8=O)C9=O)CC7)CC6)CC5)c4)c3c2)[C@@H](C)n2nnnc2N1C (stereo partly drawn) [compound 18, (7R)-N-(3-(2-(4-((1-(1-(2-(2,6-dioxopiperidin-3-yl)-1,3-dioxoisoindolin-5-yl)piperidin-4-yl)piperidin-4-yl)methyl)piperazin-1-yl)pyridin-4-yl)-1H-indazol-5-yl)-4,5,7-trimethyl-4,7-dihydrotetrazolo[1,5-a]pyrimidine-6-carboxamide] | 50 to 70 | 50 to 100 | < 50 | ≥ 100
CC1=C(C(=O)Nc2ccc3[nH]nc(-c4ccnc(N5CCN(CCOCCN6CC7(C6)CN(c6ccc8c(c6)C(=O)N(C6CCC(=O)NC6=O)C8=O)C7)CC5)c4)c3c2)[C@@H](C)n2nnnc2N1C (stereo partly drawn) [compound 20, (7R)-N-[3-(2-{4-[2-(2-{6-[2-(2,6-dioxopiperidin-3-yl)-1,3-dioxo-2,3-dihydro-1H-isoindol-5-yl]-2,6-diazaspiro[3.3]heptan-2-yl}ethoxy)ethyl]piperazin-1-yl}pyridin-4-yl)-1H-indazol-5-yl]-4,5,7-trimethyl-4H,7H-[1,2,3,4]tetrazolo[1,5-a]pyrimidine-6-carboxamide] |  | ≥ 100 |  | ≥ 100
